Article PMC10788528 (The Journal of Biological Chemistry, 2023)
Values joined by “and” are separate entries in the source; they are usually repeats but may differ in a detail not shown here. Equal values may be shown once. Read-outs that look alike come from different tables or passages of the source.

Key:
Sm.TRPMMCLZ [1] = biological target: T1, Sm.TRPMMCLZ (Schistosoma mansoni, UniProt A0A5K4FCC0); experiment: Ca2+ reporter assay; assay type: cell-based; details: for Activator screen at Sm.TRPMMCLZ: 10 μM; for EC50: Activation of Sm.TRPMMCLZ, EC50, HEK293 cells, cytoplasmic Ca2+ (Fluo-4)
T1 sequence (A0A5K4FCC0 1-1380): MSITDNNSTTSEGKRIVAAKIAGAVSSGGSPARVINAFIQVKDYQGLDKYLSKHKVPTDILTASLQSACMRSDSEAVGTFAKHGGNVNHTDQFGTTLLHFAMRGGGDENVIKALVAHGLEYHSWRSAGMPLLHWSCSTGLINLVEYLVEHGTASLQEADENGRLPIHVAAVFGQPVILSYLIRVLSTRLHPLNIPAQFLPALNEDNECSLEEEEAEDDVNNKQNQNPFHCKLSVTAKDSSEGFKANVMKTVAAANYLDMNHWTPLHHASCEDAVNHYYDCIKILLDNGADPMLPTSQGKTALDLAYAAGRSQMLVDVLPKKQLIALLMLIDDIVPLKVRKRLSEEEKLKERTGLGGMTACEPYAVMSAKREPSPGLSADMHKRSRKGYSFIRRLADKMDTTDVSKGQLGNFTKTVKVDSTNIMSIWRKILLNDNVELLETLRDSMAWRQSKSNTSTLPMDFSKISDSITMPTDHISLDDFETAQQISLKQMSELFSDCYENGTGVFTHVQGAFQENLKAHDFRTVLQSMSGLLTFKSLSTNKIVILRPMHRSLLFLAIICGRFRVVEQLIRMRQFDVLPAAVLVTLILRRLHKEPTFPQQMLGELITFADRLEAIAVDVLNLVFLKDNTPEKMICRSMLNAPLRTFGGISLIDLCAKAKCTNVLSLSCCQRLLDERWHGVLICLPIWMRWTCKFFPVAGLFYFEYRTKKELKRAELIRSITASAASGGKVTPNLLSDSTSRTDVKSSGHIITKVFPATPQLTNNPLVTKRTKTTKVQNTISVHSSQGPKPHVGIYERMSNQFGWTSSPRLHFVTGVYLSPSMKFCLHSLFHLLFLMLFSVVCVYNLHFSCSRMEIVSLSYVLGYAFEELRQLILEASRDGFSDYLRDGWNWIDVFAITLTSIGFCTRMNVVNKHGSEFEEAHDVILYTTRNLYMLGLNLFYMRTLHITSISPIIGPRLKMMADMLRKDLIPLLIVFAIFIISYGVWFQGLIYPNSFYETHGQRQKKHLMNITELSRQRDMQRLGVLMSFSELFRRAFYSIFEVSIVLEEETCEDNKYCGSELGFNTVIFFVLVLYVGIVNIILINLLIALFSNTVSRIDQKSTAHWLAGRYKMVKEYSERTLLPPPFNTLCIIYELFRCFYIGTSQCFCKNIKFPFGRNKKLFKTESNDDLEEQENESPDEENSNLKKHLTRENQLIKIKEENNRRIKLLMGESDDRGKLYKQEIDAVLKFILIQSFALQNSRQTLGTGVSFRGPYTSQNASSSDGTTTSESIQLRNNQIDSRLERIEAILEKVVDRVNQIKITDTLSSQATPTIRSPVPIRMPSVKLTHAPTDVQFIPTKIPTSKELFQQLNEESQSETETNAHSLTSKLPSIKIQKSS

juvenile worms = details: ref 7 (PZQ); 12 ((S)-MCLZ); cited from earlier work
[2] = test system: S. mansoni and S. haematobium infections; details: cited from earlier work
adult S. mansoni worms [3] = experiment: Adult schistosome movement; assay type: cell-based, Schistosoma mansoni; details: for Effect on worm movement (paralysis): 1 μM, adult S. mansoni worms, images 1 min after addition; for IC50: Schistosoma mansoni, read-out: Inhibition of motility, IC50
Sm.TRPMPZQ = Sm.TRPMPZQ (Schistosoma mansoni, UniProt A0A5K4F0X5); experiment: Ca2+ reporter assay; assay type: cell-based
Sh.TRPMMCLZ = Sh.TRPMMCLZ (Schistosoma haematobium, UniProt A0A922LUV1); experiment: Ca2+ reporter assay, Sh.TRPMMCLZ; assay type: cell-based
Chain of Sh.TRPMMCLZ (A0A922LUV1 1-1380): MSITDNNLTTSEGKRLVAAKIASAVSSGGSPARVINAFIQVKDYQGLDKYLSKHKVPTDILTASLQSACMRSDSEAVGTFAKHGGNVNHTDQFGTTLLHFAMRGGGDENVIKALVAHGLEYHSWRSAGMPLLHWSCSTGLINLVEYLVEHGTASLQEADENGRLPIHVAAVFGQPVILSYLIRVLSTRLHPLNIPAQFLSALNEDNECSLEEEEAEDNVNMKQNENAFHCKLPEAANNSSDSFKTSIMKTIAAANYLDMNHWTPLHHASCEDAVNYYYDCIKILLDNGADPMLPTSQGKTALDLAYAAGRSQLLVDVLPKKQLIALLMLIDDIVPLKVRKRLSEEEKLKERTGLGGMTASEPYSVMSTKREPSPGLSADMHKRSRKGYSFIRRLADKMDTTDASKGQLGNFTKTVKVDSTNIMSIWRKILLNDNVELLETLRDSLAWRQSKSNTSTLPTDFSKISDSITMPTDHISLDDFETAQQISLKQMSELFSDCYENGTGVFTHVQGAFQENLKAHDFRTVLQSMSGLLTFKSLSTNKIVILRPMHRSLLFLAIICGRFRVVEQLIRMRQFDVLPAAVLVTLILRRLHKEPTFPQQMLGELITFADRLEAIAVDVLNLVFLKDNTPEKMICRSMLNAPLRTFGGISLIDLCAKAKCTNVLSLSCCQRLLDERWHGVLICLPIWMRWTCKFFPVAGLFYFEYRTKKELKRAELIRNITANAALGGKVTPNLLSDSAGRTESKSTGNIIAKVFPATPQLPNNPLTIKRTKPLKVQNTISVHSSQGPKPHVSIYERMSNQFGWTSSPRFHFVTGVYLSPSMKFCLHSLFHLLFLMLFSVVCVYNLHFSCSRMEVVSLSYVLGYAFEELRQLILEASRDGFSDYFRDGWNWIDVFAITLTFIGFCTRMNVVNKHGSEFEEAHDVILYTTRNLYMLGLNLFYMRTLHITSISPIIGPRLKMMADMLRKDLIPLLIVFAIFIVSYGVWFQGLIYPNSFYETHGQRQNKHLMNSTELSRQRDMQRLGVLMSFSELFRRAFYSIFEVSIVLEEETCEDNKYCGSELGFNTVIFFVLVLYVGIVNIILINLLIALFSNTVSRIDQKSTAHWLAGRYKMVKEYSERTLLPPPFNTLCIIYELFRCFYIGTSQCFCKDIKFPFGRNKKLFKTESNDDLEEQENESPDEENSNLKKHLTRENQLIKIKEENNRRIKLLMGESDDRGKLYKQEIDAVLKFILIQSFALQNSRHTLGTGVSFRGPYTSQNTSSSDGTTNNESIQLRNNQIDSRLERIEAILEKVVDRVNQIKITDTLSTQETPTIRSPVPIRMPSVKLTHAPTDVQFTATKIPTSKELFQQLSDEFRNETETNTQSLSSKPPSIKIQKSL

Sj.TRPMMCLZ = Sj.TRPMMCLZ (Schistosoma japonicum, UniProt A0A4Z2D8Z3); experiment: Ca2+ reporter assay, Sj.TRPMMCLZ; assay type: cell-based
Chain of Sj.TRPMMCLZ (A0A4Z2D8Z3 1-1377): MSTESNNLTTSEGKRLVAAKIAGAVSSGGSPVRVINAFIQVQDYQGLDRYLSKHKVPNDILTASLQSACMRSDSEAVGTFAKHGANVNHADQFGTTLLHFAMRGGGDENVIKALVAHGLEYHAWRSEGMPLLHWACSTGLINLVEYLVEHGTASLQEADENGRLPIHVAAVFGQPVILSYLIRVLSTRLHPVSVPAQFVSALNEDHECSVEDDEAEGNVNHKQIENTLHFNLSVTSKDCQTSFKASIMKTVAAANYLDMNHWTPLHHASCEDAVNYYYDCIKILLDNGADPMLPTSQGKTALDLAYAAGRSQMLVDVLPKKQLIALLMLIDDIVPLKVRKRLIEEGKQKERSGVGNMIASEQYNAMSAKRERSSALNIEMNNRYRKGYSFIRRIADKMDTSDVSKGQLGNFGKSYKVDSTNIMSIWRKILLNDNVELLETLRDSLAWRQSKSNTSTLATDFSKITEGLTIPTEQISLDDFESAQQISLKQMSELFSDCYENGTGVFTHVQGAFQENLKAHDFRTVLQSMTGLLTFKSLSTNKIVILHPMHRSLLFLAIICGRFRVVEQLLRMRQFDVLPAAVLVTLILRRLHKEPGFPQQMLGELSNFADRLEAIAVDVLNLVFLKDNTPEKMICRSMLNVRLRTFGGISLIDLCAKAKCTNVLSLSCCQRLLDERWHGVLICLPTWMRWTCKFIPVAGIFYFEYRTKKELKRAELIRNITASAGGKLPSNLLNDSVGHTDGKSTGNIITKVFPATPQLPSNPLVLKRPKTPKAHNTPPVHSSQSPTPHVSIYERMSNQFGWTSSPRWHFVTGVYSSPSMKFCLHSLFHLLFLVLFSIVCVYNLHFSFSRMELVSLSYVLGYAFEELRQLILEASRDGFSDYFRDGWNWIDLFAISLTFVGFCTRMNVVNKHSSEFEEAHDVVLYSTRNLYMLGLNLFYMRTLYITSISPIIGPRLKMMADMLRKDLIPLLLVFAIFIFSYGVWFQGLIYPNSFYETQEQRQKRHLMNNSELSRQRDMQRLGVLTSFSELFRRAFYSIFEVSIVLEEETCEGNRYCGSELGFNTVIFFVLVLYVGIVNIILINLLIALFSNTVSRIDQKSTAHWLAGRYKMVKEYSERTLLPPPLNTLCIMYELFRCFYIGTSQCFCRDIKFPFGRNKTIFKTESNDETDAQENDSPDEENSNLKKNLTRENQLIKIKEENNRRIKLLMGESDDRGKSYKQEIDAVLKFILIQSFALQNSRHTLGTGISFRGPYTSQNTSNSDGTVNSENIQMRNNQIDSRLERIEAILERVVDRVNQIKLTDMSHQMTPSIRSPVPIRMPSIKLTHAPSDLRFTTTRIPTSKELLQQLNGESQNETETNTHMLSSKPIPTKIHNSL

St.TRPMMCLZ = experiment: Ca2+ reporter assay, St.TRPMMCLZ; assay type: cell-based, Schistosoma turkestanicum; details: read-out: Activation of St.TRPMMCLZ, EC50
Sb.TRPMMCLZ = Sb.TRPMMCLZ (Schistosoma bovis, UniProt A0A430Q971); experiment: Ca2+ reporter assay, Sb.TRPMMCLZ; assay type: cell-based
Chain of Sb.TRPMMCLZ (A0A430Q971 1-1241): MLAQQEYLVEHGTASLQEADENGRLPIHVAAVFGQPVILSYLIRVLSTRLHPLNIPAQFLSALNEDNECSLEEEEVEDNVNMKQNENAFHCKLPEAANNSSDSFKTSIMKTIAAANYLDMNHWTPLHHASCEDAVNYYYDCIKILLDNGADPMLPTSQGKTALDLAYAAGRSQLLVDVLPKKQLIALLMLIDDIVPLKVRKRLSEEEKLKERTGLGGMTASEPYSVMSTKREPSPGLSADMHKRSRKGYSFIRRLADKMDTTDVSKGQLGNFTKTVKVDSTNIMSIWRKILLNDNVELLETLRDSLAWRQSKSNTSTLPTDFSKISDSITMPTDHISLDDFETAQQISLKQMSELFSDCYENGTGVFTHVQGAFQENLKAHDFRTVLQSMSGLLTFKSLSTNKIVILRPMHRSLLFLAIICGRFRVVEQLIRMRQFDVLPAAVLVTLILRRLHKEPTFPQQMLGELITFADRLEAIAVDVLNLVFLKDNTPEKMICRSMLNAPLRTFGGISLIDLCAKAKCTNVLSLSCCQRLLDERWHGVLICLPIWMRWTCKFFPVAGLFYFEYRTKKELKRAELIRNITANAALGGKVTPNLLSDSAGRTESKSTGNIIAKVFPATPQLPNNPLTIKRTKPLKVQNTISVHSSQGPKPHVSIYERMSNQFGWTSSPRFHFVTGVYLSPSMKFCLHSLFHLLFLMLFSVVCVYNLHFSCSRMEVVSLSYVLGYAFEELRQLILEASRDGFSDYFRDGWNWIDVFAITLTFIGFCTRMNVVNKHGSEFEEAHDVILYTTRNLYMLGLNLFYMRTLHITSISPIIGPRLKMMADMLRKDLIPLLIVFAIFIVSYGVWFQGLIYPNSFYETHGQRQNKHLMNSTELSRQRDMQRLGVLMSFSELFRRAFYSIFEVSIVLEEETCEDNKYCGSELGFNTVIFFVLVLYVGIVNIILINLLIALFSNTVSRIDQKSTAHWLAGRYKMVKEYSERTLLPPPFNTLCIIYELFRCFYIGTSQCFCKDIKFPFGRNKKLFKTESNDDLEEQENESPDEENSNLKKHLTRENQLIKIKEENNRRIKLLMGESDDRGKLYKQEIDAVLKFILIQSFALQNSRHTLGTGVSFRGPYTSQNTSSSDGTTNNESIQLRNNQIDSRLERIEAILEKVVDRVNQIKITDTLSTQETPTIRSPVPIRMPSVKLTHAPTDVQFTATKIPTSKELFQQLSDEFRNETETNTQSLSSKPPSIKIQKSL

Sh.TRPM[H946Y] = experiment: Ca2+ reporter assay, Sh.TRPM[H946Y] mutant; assay type: cell-based, Schistosoma haematobium; details: S4 point mutant
Sb.TRPM[H946Y] = experiment: Ca2+ reporter assay, Sb.TRPM[H946Y] mutant; assay type: cell-based, Schistosoma bovis; details: S4 point mutant
Sm.TRPM[H831A]MCLZ = experiment: Ca2+ reporter assay, Sm.TRPM[H831A]MCLZ mutant; assay type: cell-based, Schistosoma mansoni; details: binding pocket mutant
Sm.TRPM[R943A]MCLZ = experiment: Ca2+ reporter assay, Sm.TRPM[R943A]MCLZ mutant; assay type: cell-based, Schistosoma mansoni; details: binding pocket mutant
Sm.TRPM[Y1117A]MCLZ = experiment: Ca2+ reporter assay, Sm.TRPM[Y1117A]MCLZ mutant; assay type: cell-based, Schistosoma mansoni; details: binding pocket mutant
Sm.TRPM[H827A]MCLZ = experiment: Ca2+ reporter assay, Sm.TRPM[H827A]MCLZ mutant; assay type: cell-based, Schistosoma mansoni; details: binding pocket mutant
Sm.TRPM[E868A]MCLZ = experiment: Ca2+ reporter assay, Sm.TRPM[E868A]MCLZ mutant; assay type: cell-based, Schistosoma mansoni; details: S2 residue mutant
Sm.TRPM[Y864A]MCLZ = experiment: Ca2+ reporter assay, Sm.TRPM[Y864A]MCLZ mutant; assay type: cell-based, Schistosoma mansoni; details: S2 residue mutant
Sm.TRPM[H946A]MCLZ = experiment: Ca2+ reporter assay, Sm.TRPM[H946A]MCLZ mutant; assay type: cell-based, Schistosoma mansoni; details: alanine mutant
Sm.TRPMMCLZ [4] = biological target: T1, Sm.TRPMMCLZ; experiment: Cell-attached current recordings, HEK293 cells expressing Sm.TRPMMCLZ and GFP; assay type: cell-based; details: 10 μM
Sm.TRPMMCLZ [Y1038A] = assay type: cell-based, Schistosoma mansoni; details: 10 μM, cell-attached
[5] = test system: HEK293 cells expressing GFP alone; experiment: Cell-attached current recordings, HEK293 cells expressing GFP alone; assay type: cell-based; details: 10 μM
Sm.TRPMMCLZ [6] = biological target: T1, Sm.TRPMMCLZ; experiment: Confocal Ca2+ imaging, HEK293 cells expressing Sm.TRPMMCLZ; assay type: cell-based; details: 10 μM
adult S. mansoni worms [7] = details: cited from earlier work
S. japonicum worms = details: cited from earlier work
S. mansoni male worms = experiment: Acute contraction of S. mansoni male worms by benzodiazepines; assay type: cell-based, Schistosoma mansoni; details: 3 μM, 20 min
[8] = preliminary clinical evaluation

O=C(C1CCCCC1)N1CC(=O)N2CCc3ccccc3C2C1 (racemic) [(±)-PZQ, praziquantel]
Agonist activity at Sm.TRPMMCLZ (concentration-response) (Sm.TRPMMCLZ [1]; HEK293 cells, cytoplasmic Ca2+): did not activate
Antagonism of (S)-MCLZ activation of Sm.TRPMMCLZ (Sm.TRPMMCLZ [1]; competition versus (S)-MCLZ (1 μM)): failed to inhibit
Efficacy against juvenile / immature worms (juvenile worms): poorly effective against immature worms
Cure rates ([2]; at clinical dosing): 60–90%

NCCc1c[nH]c2ccc(O)cc12 [5-hydroxytryptamine]
Activator screen at Sm.TRPMMCLZ (Sm.TRPMMCLZ [1]): inactive

O=C(C1CCCCC1)N1CC(=O)N2CCc3ccccc3[C@@H]2C1 [(R)-PZQ, praziquantel]
Effect on worm movement (paralysis) (adult S. mansoni worms [3]): rapid, spastic paralysis
IC50 (adult S. mansoni worms [3]): 250 ± 70 nM

C[C@@H]1N=C(c2ccccc2Cl)c2cc([N+](=O)[O-])ccc2NC1=O [(S)-MCLZ, (S)-meclonazepam]
Effect on worm movement (paralysis) (adult S. mansoni worms [3]): rapid, spastic paralysis
IC50 (adult S. mansoni worms [3]): 1540 ± 90 nM
EC50 (Sm.TRPMMCLZ [1]): 1100 nM and ~1000 nM
Agonist activity at Sm.TRPMPZQ (concentration-response) (Sm.TRPMPZQ; HEK293 cells, 1 nM to 100 μM): did not activate
Antagonism of PZQ activation of Sm.TRPMPZQ (Sm.TRPMPZQ; competition versus (±)-PZQ (0.6 μM), high concentrations (>30 μM)): partially attenuated
EC50 (Sh.TRPMMCLZ): 1400 ± 400 nM
EC50 (Sj.TRPMMCLZ): > 50000 nM
EC50 (St.TRPMMCLZ): > 50000 nM
EC50 (Sb.TRPMMCLZ): 1300 ± 300 nM
Sensitivity of Sh.TRPM[H946Y] relative to wildtype (Sh.TRPM[H946Y]): lower sensitivity of response
Sensitivity of Sb.TRPM[H946Y] relative to wildtype (Sb.TRPM[H946Y]): lower sensitivity of response
Activation of Sm.TRPM[H831A]MCLZ (Sm.TRPM[H831A]MCLZ): little activation
Activation of Sm.TRPM[R943A]MCLZ (Sm.TRPM[R943A]MCLZ): little activation
Activation of Sm.TRPM[Y1117A]MCLZ (Sm.TRPM[Y1117A]MCLZ): little activation
Activation of Sm.TRPM[H827A]MCLZ (Sm.TRPM[H827A]MCLZ): resembled the wildtype channel
Activation of Sm.TRPM[E868A]MCLZ (effect of mutation) (Sm.TRPM[E868A]MCLZ): much less of an effect
Activation of Sm.TRPM[Y864A]MCLZ (effect of mutation) (Sm.TRPM[Y864A]MCLZ): much less of an effect
Potency at Sm.TRPM[H946A]MCLZ relative to wildtype (Sm.TRPM[H946A]MCLZ): slightly increased potency
Cells with evoked inward current (Sm.TRPMMCLZ [4]; holding potential of 60 mV as printed): 17/21
Reversal potential of current-voltage relationship (Sm.TRPMMCLZ [4]; voltage ramp, I-V linear): ~0 mV
Current response in pore mutant Sm.TRPMMCLZ [Y1038A] (Sm.TRPMMCLZ [Y1038A]): strongly attenuated
Cells with evoked currents [5]: 0/10
Ca2+ signals by confocal imaging in cells expressing Sm.TRPMMCLZ (Sm.TRPMMCLZ [6]): sustained Ca^2+ transients
EC50 (St.TRPM[Y940H]MCLZ): 800 ± 200 nM
Damage to the worm tegument (adult S. mansoni worms [7]): pronounced damage to the worm tegument
Time to spastic paralysis of adult S. mansoni worms (adult S. mansoni worms [7]): < 1 min
IC50 (adult S. mansoni worms [7]; read-out: Sensitivity of schistosome worms, IC50): 2000 to 3000 nM
Efficacy against juvenile / immature worms (juvenile worms): displays efficacy against juvenile worms
Clinical outcome of infection [2, 8]: cured S. mansoni and S. haematobium infections
Side effects in subjects [2, 8]: dose-dependent drowsiness, dizziness, slurred speech, ataxia, reduced mental alertness, muscle weakness, hypotension, and bradycardia
Activity against S. japonicum worms (S. japonicum worms): poorly active

O=C1CN=C(c2ccccc2Cl)c2cc([N+](=O)[O-])ccc2N1 [Clonazepam]
EC50 (Sm.TRPMMCLZ [1]): 2100 ± 200 nM
Acute contraction / paralysis of S. mansoni male worms (S. mansoni male worms): caused acute worm paralysis

O=C(O)CN(CCOCCOCCN(CC(=O)O)CC(=O)O)CC(=O)O [EGTA]
Effect of chelation of extracellular Ca2+ on the (S)-MCLZ-evoked Ca2+ signal (Sm.TRPMMCLZ [1]; EGTA 1 mM in Ca2+-free HBSS, (S)-MCLZ 100 μM): abolished

COC(=O)c1c(C)[nH]c(C)c1C(=O)c1ccccc1Cc1ccccc1 [FPL-64176]
Activator screen at Sm.TRPMMCLZ (Sm.TRPMMCLZ [1]): activated
Activation of Sm.TRPMPZQ by Cav channel ligands (Sm.TRPMPZQ; Fig. S2 concentration-response): but not Sm.TRPMPZQ

NCCCC(=O)O [GABA]
Activator screen at Sm.TRPMMCLZ (Sm.TRPMMCLZ [1]): inactive

[Cl-].[Cl-].[Mg+2] [Mg^2+, MgCl2]
Inhibition of Ca2+ permeability through TRPMMCLZ by metal salt (Sm.TRPMMCLZ [1]; (S)-MCLZ 1 μM, weakest in rank order La3+ > Ba2+ > Mg2+): partial inhibition

C=CCN=C=S [allyl isothiocyanate]
Activator screen at Sm.TRPMMCLZ (Sm.TRPMMCLZ [1]): inactive

COc1cc(CNC(=O)CCCC/C=C/C(C)C)ccc1O [capsaicin]
Activator screen at Sm.TRPMMCLZ (Sm.TRPMMCLZ [1]): inactive
